According to US6303596A, “Use of taurolidine for treatment of leukemias” (priority 2000, dated 2001):
Like-named read-outs stand apart in the source and are kept apart here.

How the values were obtained:
Assay type in all cases: cell-based, human
[1] = test system: other leukemia-derived cell lines; assay: growth after taurolidine treatment, other leukemia-derived cell lines; conditions: 50 μg/ml or greater
Protocol: In these experiments, integrity of cell membranes following taurolidine treatment was assessed by exclusion of trypan blue and by measuring the release of LDH in MM6, K-562, HL-60, and REH cells. Since BCS contains significant amounts of LDH, these experiments were conducted on cells cultured in AIM-V+0.01% BCS. Four hour treatment of cells was conducted in AIM-V containing 0.01% BCS in order to allow subsequent LDH assay without interference from BCS (which occurs in when normal culture medium, containing 10% BCS, is used). Thus, MM6 cells (5×10^5 cells/ml) were treated with taurolidine for four hours in AIM-V+0.01% BCS, after which an aliquot of the cell suspension was removed for measurement of LDH release. A parallel aliquot of cells was lysed by three cycles of freeze/thaw and the quantity of LDH released was taken to be 100%. Remaining cells were rinsed in HBSS and resuspended in growth medium for measurement of growth rates.
HL-60 cells treated with 50 μl taurolidine. In these samples, LDH present in the culture medium was 8.3±2.3% of that released by completely lysed cells, compared with 2.3±0.8% measured in control cultures. […] After 4 hour treatment, cells were rinsed and returned to growth medium and monitored for viability and growth over the following 3 days. […]

[2] = test system: MM6 cells; assay: trypan blue exclusion, MM6
Protocol: FIG. 4A and FIG. 4B are graphs depicting cell viability and growth rates following taurolidine treatment as determined by assay procedures. MM6 cells were treated with taurolidine as described in FIG. 3. After aliquots were collected for the lactate dehydrogenase (LDH) assay, the remainder of the culture was rinsed in Hank's balanced salt solution (HBSS) and resuspended in RPMI+10% BCS without taurolidine. Counts of trypan blue-negative cells represented in FIG. 4A and total cell number represented in FIG. 4B were recorded daily thereafter (with the measurement at Day 1 being made immediately after the four hour taurolidine treatment). Conditions were no treatment (open squares); 50 μg/ml taurolidine (closed squares); 25 μg/ml taurolidine (open circles); and vehicle alone (closed circles). Cells were subcultured when they reached a concentration of 6×10^5 cells/ml. Data are mean±SEM of three experiments.
FIGS. 5A and 5B depict cell viability and growth rates for MM6 cell line following taurolidine treatment, in terms of % trypan blue negative cells and % cell number, respectively. Cells were treated with various concentrations of taurolidine for 4 hours in AIM-V+0.01% BCS. After aliquots were collected for LDH assay, the remainder of the culture was rinsed in HBSS and resuspended in RPMI+10% BCS without taurolidine. Counts of trypan blue-negative cells (FIG. 5A), and total cell number (FIG. 5B), were recorded daily thereafter (with the measurement at Day 1 being made immediately after the 4 hour taurolidine treatment). […] Doubling times were determined under each condition, and expressed as a percentage of the rate of doubling of untreated cells. […]
In these experiments, integrity of cell membranes following taurolidine treatment was assessed by exclusion of trypan blue and by measuring the release of LDH in MM6, K-562, HL-60, and REH cells. […] A parallel aliquot of cells was lysed by three cycles of freeze/thaw and the quantity of LDH released was taken to be 100%. […]

[3] = test system: granulocytes; assay: TUNEL / propidium iodide flow cytometry, granulocytes; conditions: for cytotoxicity at 100 µg/mL: Homo sapiens
Protocol: Human granulocytes were isolated from heparinized blood by diluting blood 1:1 with 6% dextran to sediment RBC, then centrifuging to obtain leukocyte rich plasma. The remaining RBC were lysed by 20 second incubation with 0.2% NaCl. After lysis, NaCl was added to a final concentration of 0.9%, the sample was centrifuged, and the cell pellet resuspended in HBSS containing 0.5% HSA. An equal volume of Histopaque (Sigma) was layered underneath the cell suspension. Upon centrifugation, the PBMC remained above the Histopaque layer, while the granulocytes were sedimented. Purity of collected granulocytes was assayed by flow cytometry using PE-conjugated […].
In the second method, DNA fragmentation was detected via TUNEL assay according to the manufacturer's instructions. With this methodology, 2×10^6 cells were fixed with 2% paraformaldehyde, permeabilized with 0.1% Triton X-100/0.1% citrate, incubated at 37° C. with terminal deoxynucleotidyl transferase and FITC-dUTP, rinsed and analyzed by flow cytometry. Enhanced FITC signal indicates apoptosis-specific DNA fragmentation. Gavriali, et al, "Identification of programmed cell death in situ via specific labeling of nuclear DNA fragmentation," J Cell Biol 119:493 (1992). Parallel aliquots of unfixed cells were treated with PI and FITC-conjugated anti-CD14 and analyzed by flow cytometry, in order to identify cells with permeable cell membranes (since PI binds to DNA but is excluded from cells with intact plasma membranes) and also to determine the cell-specificity of the apoptotic signal.
The effect of taurolidine on granulocytes was assayed by TUNEL analysis on taurolidine-treated purified granulocytes. These experiments were conducted in culture medium rather than whole blood. Granulocytes were treated with 100 μg/ml taurolidine since it had been shown that this concentration of taurolidine is apoptogenic to peripheral blood monocytes treated in culture medium. TUNEL-positive granulocytes ranged from 2% to 30% in untreated samples, and varied according to blood donor. […] Therefore, the apoptogenic effect of taurolidine is not specific to monocytic cells.
^a Analysis by flow cytometry after staining cells with PI and
processing for TUNEL. Data are mean ± SEM of 5 experiments.

With `O=S1(=O)CCN(CN2CCS(=O)(=O)NC2)CN1` [taurolidine, 4,4'-methylenebis(perhydro-1,2,4-thiadiazin 1,1-dioxide)] the “growth after taurolidine treatment” value [1] was “inhibition of growth”, the cytotoxicity at 50 µg/mL ([2]; Homo sapiens, MM6, 50 μg/ml taurolidine for 4 h, untreated and vehicle 5%, read-out: trypan blue-positive cells on the day following treatment (Day 2)) was 65% and the “trypan blue staining after treatment” value ([2]; MM6, 25 μg/ml taurolidine) was “did not show an increase in trypan blue staining”. For the same molecule, the “trypan blue exclusion immediately after treatment (Day 1)” value ([2]; MM6, taurolidine-treated 4 h, versus control) was “equally able to exclude trypan blue”, the apoptosis of granulocytes ([3]; 100 μg/ml taurolidine, within 6 h, culture medium) was 92% and the cytotoxicity at 100 µg/mL ([3]; 6 h, granulocytes, 100 μg/ml taurolidine, mean ± SEM of 5 experiments (Table VII), read-out: % propidium iodide positive) was 1.6 ± 0.5%. For the same molecule, the cytotoxicity at 100 µg/mL ([3]; granulocytes, 100 μg/ml, 6 hours (Table V), read-out: % Propidium Iodide Positive Cells) was 2%, the “effectiveness in granulocytes relative to monocytes” value ([3]; TUNEL, purified cells in culture medium) was “at least as effective” and the “% TUNEL-positive” value ([3]; granulocytes, 100 μg/ml taurolidine, mean ± SEM of 5 experiments (Table VII)) was 91.5 ± 3.5%. For the same molecule, the “% TUNEL-Negative Cells” value ([3]; granulocytes, 100 μg/ml, 6 hours (Table V)) was 8%.
